“Also recorded” adds a separate entry of the source. Where a SMILES comes first, the peptide text is derived from it. Bridges are numbered along the chain shown (N, C = ends). [ ]: non-standard residue; d: D form. hArg = N=C(N)NCCCC[C@H](N)C(=O)O; Mpa = O=C(O)CCS
Legend:
[1] = target: T1, interaction of human fibrinogen and human integrin αIIbβ3 (Homo sapiens, UniProt P05106+P08514); assay: Fibrinogen binding inhibition assay (competitive ELISA)
T1 construct: purchased Enzyme Research Laboratories (South Bend, Ind.)
Description: Wells of a Costar 3690 96-well plate were coated with 100 ng of integrin αIIbβ3 in 50 μl metal buffer at 4° C. overnight. The plate was washed twice with water and blocked with 160 μl of 3% (w/v) skim milk in TBS for 1 h at 37° C. […] The final concentrations were adjusted between 1.3×10^−8 M and 8.0×10^−7 M of Fabs and between 8.9×10^−8 M and 9.1×10^−5 M of synthetic peptides. After incubation for 2 h at 37° C. followed by ten times washing with water and five times washing with 0.05% Tween20 in TBS, 50 μl of 0.5 μg/ml streptavidine-HRP (Pierce) diluted in 3% (w/v) skim milk in TBS was added and incubated for 1 h at 37° C. After washing as above, 50 μl of ABTS substrate solution (Barbas, C. F., 3rd, Burton, D. R., Scott, J. K., and Silverman, G. J. (2001) Phage Display: A Laboratory Manual, Cold Spring Harbor Laboratory Press, Cold Spring Harbor, N.Y.) was added. This experiment was repeated three times at each concentration to get the mean value and standard deviation.

[2] = system: human platelets; assay: Platelet aggregation assay ex vivo (ADP-induced, lumi-aggregometer); type: cell-based; settings: ADP 20 μM; for inhibition of platelet aggregation at 90 μM: peptide 90 μM
Description: Peripheral human blood was collected as described above. Platelet-rich plasma (PRP) was obtained from the collected peripheral blood by centrifugation at 135 g for 15 min. Subsequent centrifugation at 1,500 g for 15 min yielded platelet-poor plasma (PPP). By mixing PRP and PPP, conditioned plasma of 300,000-350,000 platelets per 1 μl of plasma was prepared. […] The platelet aggregation assay was done as described previously (Klinkhardt, U., Kirchmaier, C. M., Westrup, D., Breddin, H. K., Mahnel, R., Graff, J., Hild, M., and Harder, S. (2000) Differential in vitro effects of the platelet glycoprotein IIb/IIIa inhibitors abxicimab or SR121566A on platelet aggregation, fibrinogen binding and platelet secretory parameters. Thromb Res 97, 201-207) using a whole blood lumi-aggregometer (Chrono-log, Havertown, Pa.). The impedance of each sample was monitored until a stable baseline was established (<5 mV drift per minute). To induce platelet aggregation, 9 μl of an ADP solution was added to reach a final concentration of 20 μM. Increase in impedance across a pair of electrodes over time was transmitted through an interface to a personal computer for analysis (AGGRO/LINK, Chrono-log).

[3] = target: integrin αIIbβ3 (Homo sapiens, UniProt P05106+P08514); assay: Inhibition of binding of selected RAD antibodies to integrin by peptides
[4] = system: human platelets; assay: Flow cytometry, Fab binding to cells; type: cell-based; settings: Fab 0.2 μM, peripheral blood
Description: (§1) Peripheral blood was drawn from a healthy volunteer and collected in an ACD tube (Becton Dickinson, San Jose, Calif.). HUVEC were treated for 5 min with 0.05% (w/v) trypsin, 0.53 mM EDTA (Life Technologies), collected by centrifugation at 500 g for […], and resuspended in 1% (w/v) BSA in PBS (phosphate buffered saline). […] After incubation for 40 min at room temperature followed by washing twice with 1% (w/v) BSA in PBS, 10 μl of FITC conjugated anti-human IgG polyclonal antibodies (Sigma-Aldrich) diluted in 750 μl of 1% (w/v) BSA in PBS was added and incubated for 20 min at room temperature. After washing twice with 1% (w/v) BSA in PBS, flow cytometry was performed using a FACStar instrument from Becton Dickinson (San Jose, Calif.).

[5] = system: HUVEC cells; assay: Flow cytometry, Fab binding to cells; type: cell-based, human; settings: Fab 0.2 μM; HUVEC mainly express integrin αvβ3
Description: as §1

[6] = system: platelets; settings: aggregation induced at 5 μM ADP; read-out: previously reported EC50 of platelet aggregation inhibition; cited from earlier work
[7] = system: integrins αIIbβ3, αvβ3 and αMβ2; settings: cited from earlier work
[8] = human, in vivo; cited from earlier work

inhibition of the binding of the selected RAD antibodies to integrin αIIbβ3 [3] | Compound | inhibition of the interaction between integrin αIIbβ3 and fibrinogen (in words) [1] | inhibition of platelet aggregation ex vivo (in words) [2] | inhibition of platelet aggregation at 90 μM [2] | reported integrin specificity / cross-reactivity [7] | also measured
 | THSDARRRE (inversed RAD motif peptide) [control peptide with an inversed RAD motif, reference compound] | did not inhibit |  |  |  | 
inhibited | CC(C)[C@H](N)C(=O)N[C@@H](Cc1c[nH]c2ccccc12)C(=O)N[C@H]1CSSC[C@@H](C(=O)O)NC(=O)[C@H](CCCNC(=N)N)NC(=O)[C@H](CCCCN)NC(=O)[C@H](CC(=O)O)NC(=O)[C@H](C)NC(=O)[C@H](CCCNC(=N)N)NC1=O (H-VWCRADKRC-OH; disulfide 3-9; N-terminus and C-terminus assumed) | inhibited; also recorded: strongly inhibited | inhibited; also recorded: strongly inhibited | completely inhibited |  | 
 | VVCDARRRC (inversed RAD motif peptide) [control peptide with an inversed RAD motif, reference compound] | did not inhibit |  |  |  | 
 | THSRADRRE (listed as Homo sapiens) [linear nonapeptide derived from HCDR3 of clone RAD1] | did not inhibit and not | not |  |  | 
 | Abciximab: chimeric Fab with mouse variable and human constant domains, integrin αIIbβ3 inhibitor |  |  |  | cross-react with integrin αvβ3 and αMβ2 | binding to human platelets (flow cytometry) [4]: bound to both platelets and HUVEC cells; binding to HUVEC cells (flow cytometry) [5]: bound to both platelets and HUVEC cells; EC50 ([2]; conditioned plasma, read-out: EC50, required concentration for 50% inhibition in a human platelet aggregation assay): 45 nM; EC50 [6]: 34 nM; occurrence of thrombocytopenia after the second administration [8]: 4%
inhibited | CC(C)[C@H](N)C(=O)N[C@@H](Cc1c[nH]c2ccccc12)C(=O)N[C@H]1CSSC[C@@H](C(=O)O)NC(=O)[C@H](CCCNC(=N)N)NC(=O)[C@H](CCCNC(=N)N)NC(=O)[C@H](CC(=O)O)NC(=O)[C@H](C)NC(=O)[C@H](CCCNC(=N)N)NC1=O (H-VWCRADRRC-OH; disulfide 3-9; N-terminus and C-terminus assumed) | inhibited; also recorded: strongly inhibited | inhibited; also recorded: strongly inhibited | completely inhibited |  | inhibition of platelet aggregation at 9 μM ([2]; peptide 9 μM): the only peptide to inhibit platelet aggregation
 | CCCCS(=O)(=O)N[C@@H](Cc1ccc(OCCCCC2CCNCC2)cc1)C(=O)O [tirofiban] |  |  |  | αIIbβ3-specific | 
inhibited | CC(C)[C@H](N)C(=O)N[C@H](C(=O)N[C@H]1CSSC[C@@H](C(=O)O)NC(=O)[C@H](CCCNC(=N)N)NC(=O)[C@H](CCCNC(=N)N)NC(=O)[C@H](CC(=O)O)NC(=O)[C@H](C)NC(=O)[C@H](CCCNC(=N)N)NC1=O)C(C)C (H-VVCRADRRC-OH; disulfide 3-9; N-terminus and C-terminus assumed) | inhibited; also recorded: strongly inhibited | inhibited; also recorded: strongly inhibited | completely inhibited |  | 
 | N=C(N)NCCCC[C@@H]1NC(=O)CCSSC[C@@H](C(N)=O)NC(=O)[C@@H]2CCCN2C(=O)[C@H](Cc2c[nH]c3ccccc23)NC(=O)[C@H](CC(=O)O)NC(=O)CNC1=O [eptifibatide] ([Mpa][hArg]GDWPC-NH2; disulfide 1-7) |  |  |  | αIIbβ3-specific | incidence of thrombocytopenia versus placebo [8]: approximately the same

Source: US8586033B2, “Integrin αIIbβ3 specific antibodies and peptides” (The Scripps Research Institute, priority 2003, dated 2013)
